In US20240165151A1, “COMPOSITIONS AND METHODS FOR TREATING UPPER RESPIRATORY INFECTIONS” (priority 2020, published 2024):
Read-outs that look alike come from different tables or passages of the source. Marks after values point to notes of the source that are not given here.

What was measured:
[1] = tested on: influenza virus; conditions: cited from earlier work
[2] = tested on: SARS-CoV-2; conditions: cited from earlier work
[3] = tested on: SARS-CoV-2; format: cell-based; conditions: for Virus CCID50 per well ± SD: 22±2°C, average of 3 replicates; for LRV (log reduction value): compared to the virus control
[4] = tested on: Vero 76 cells

## CCOC(=O)C1=C[C@@H](OC(CC)CC)[C@H](NC(C)=O)[C@@H](N)C1 [Oseltamivir]
[1]; on day 2
  influenza RNA concentration decrease: −1.19 log10 copies/mL
[1]; on day 4
  influenza RNA concentration decrease: −0.68 log10 copies/mL

## LY-CoV555: SARS-CoV-2 neutralizing antibody
[2]; day 3
  relative SARS-CoV-2 RNA decrease versus placebo: −0.64 log10 copies/mL
[2]; day 7
  relative SARS-CoV-2 RNA decrease versus placebo: −0.45 log10 copies/mL

## CCO [EtOH (63%), Ethanol]
[3]; contact time 2 minutes
  Virus CCID50 per well ± SD: <1.7**** log CCID50 per 0.1 mL
  LRV (log reduction value): >2.2 log10
[3]; contact time 10 minutes
  Virus CCID50 per well ± SD: <1.7**** log CCID50 per 0.1 mL
  LRV (log reduction value): >2.2 log10
[4]
  cytotoxicity in culture: cytotoxic
